# Source: patent publication US20120208882A1, “Organic Compounds” (priority 2005, published 2012)
# Where a name gives a salt, the structure may show the parent alone. Read-outs that look alike come from different tables or passages of the source.
# Assays:
# [1] = tested on: Human bronchial epithelial cells (amiloride-sensitive, ENaC-mediated short circuit current); assay: Epithelial ion transport: amiloride-sensitive short circuit current in Ussing chambers; type: cell-based; settings: Epithelial cell, 1.5 h, 50% inhibition of aprotinin-sensitive component of amiloride-sensitive ISC, 90 minutes treatment, read-out: HBEC (IC50)
# Experimental: (§1) Biochemical assays: Recombinant human prostasin and matriptase and guinea pig prostasin are generated according to methods described in Shipway et al., Biochemical and Biophysical Research Communications 2004; 324(2):953-63). The recombinant enzymes are incubated in an electrolyte buffer test compounds or vehicle in a suitable multiple well assay plate such as a 96 or 384 well plate. At a defined time after the mixing of enzyme with compound. Or vehicle, a suitable fluorescent peptide substrate is added to the assay mixture. As substrate becomes cleaved by the active enzyme; fluorescence (measured using a suitable fluorescence plate reader) increases and the rate of turnover of substrate (i.e. enzyme activity) can be quantified and thus the inhibitory effect of any test compound. The efficacy of test compounds is expressed as the concentration that induces a 50% attenuation in the enzyme activity (Ki). […] Short circuit current (ISC) is then measured by voltage clamping the epithelia to zero millivolts. The amiloride-sensitive ISC is then measured by the addition of amiloride (10 μM) to the apical surface of the epithelia. […] The tracheal potential difference, is then measured using a suitable high impedance voltmeter as described in Takahashi et al., Toxicol Appl Pharmacol. 1995; 131(1):31-6. […]
# rh-prostasin = target: T1, rh-prostasin (Homo sapiens, UniProt Q16651); assay: Biochemical assay, recombinant human prostasin, fluorescent peptide substrate
# T1 construct: made in house
# Experimental: as §1
# rh-matriptase = target: T2, rh-matriptase (Homo sapiens, UniProt Q9Y5Y6); assay: Biochemical assay, recombinant human matriptase, fluorescent peptide substrate
# T2 construct: made in house
# T2 sequence (Q9Y5Y6 1-855): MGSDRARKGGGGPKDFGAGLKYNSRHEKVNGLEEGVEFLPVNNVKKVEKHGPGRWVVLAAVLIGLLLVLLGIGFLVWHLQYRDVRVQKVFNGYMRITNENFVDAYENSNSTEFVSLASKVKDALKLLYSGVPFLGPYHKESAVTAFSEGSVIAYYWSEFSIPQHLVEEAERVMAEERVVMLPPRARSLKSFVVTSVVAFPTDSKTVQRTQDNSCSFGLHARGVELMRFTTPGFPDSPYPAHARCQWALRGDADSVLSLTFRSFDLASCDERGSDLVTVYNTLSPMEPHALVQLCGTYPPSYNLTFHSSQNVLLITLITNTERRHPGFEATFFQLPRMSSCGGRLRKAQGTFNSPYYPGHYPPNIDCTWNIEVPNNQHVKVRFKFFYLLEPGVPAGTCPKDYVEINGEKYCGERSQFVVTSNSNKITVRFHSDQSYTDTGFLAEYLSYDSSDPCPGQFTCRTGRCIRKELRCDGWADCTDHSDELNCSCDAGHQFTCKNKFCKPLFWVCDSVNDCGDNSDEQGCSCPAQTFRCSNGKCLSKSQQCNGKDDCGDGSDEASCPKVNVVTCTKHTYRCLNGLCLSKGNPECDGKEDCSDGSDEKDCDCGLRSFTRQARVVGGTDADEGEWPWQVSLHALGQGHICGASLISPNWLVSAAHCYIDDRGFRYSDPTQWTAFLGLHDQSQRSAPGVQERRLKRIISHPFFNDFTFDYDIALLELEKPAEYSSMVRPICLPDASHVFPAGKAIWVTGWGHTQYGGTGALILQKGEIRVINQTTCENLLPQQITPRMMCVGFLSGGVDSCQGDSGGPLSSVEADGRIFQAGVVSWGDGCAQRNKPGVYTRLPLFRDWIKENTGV
# Experimental: as §1
# rGPig-prostasin = rGPig-prostasin (Cavia porcellus, UniProt A0A286XIW9); assay: Biochemical assay, recombinant guinea pig prostasin, fluorescent peptide substrate
# Experimental: as §1
# [2] = tested on: Guinea pig tracheal potential difference; assay: Tracheal potential difference (in vivo); settings: for ED50: Cavia porcellus, inhaled or nasal, i.t., read-out: GPig tracheal PD in vivo (ED50)
# Experimental: Biochemical assays: Recombinant human prostasin and matriptase and guinea pig prostasin are generated according to methods described in Shipway et al., Biochemical and Biophysical Research Communications 2004; 324(2):953-63). The recombinant enzymes are incubated in an electrolyte buffer test compounds or vehicle in a suitable multiple well assay plate such as a 96 or 384 well plate. At a defined time after the mixing of enzyme with compound. Or vehicle, a suitable fluorescent peptide substrate is added to the assay mixture. As substrate becomes cleaved by the active enzyme; fluorescence (measured using a suitable fluorescence plate reader) increases and the rate of turnover of substrate (i.e. enzyme activity) can be quantified and thus the inhibitory effect of any test compound. The efficacy of test compounds is expressed as the concentration that induces a 50% attenuation in the enzyme activity (Ki). Epithelial ion transport: Human bronchial epithelial cells are cultured according to methods described in Danahay et al., American Journal of Physiology Lung Cell Molecular Physiology 2002; 282(2):L226-36). When suitably differentiated (days 14-21 after establishing an apical-air interface) epithelial cells are treated with either vehicle, aprotinin (200 μg/ml) or test compound for 90 minutes. Epithelia are then, placed into Ussing Chambers as described in Danahay et al., American Journal of Physiology Lung Cell Molecular Physiology 2002; 282(2):L226-36) maintaining the concentration of vehicle, aprotinin or test compound on the apical side of the epithelia. Short circuit current (ISC) is then measured by voltage clamping the epithelia to zero millivolts. The amiloride-sensitive ISC is then measured by the addition of amiloride (10 μM) to the apical surface of the epithelia. The potency of the test compound is expressed as the concentration inducing a 50% inhibition of the total aprotinin-sensitive component of the amiloride-sensitive ISC. Tracheal potential difference (in vivo): Guinea pigs are anaesthetized using a short acting inhalation anaesthesia such as halothane and N20. Whilst under short acting anaesthesia an oral gavage needle is inserted into the trachea via the oropharangeal route. Once inside the trachea, a small volume (50-200 μl) of vehicle or test compound, in a suitable aqueous-based diluent, is instilled into the airways. Animals then recover and become fully ambulatory. Alternatively test compounds can be administered to animals using aerosol or dry powder dosing. At a defined time after dosing, the animals are surgically anaesthetized using a suitable anaesthesia such as ketamine and xylazine. The trachea is then exposed and a plastic agar bridge electrode is inserted into the tracheal lumen. A reference electrode is also inserted into the layers, of muscle in the animal's neck. The tracheal potential difference, is then measured using a suitable high impedance voltmeter as described in Takahashi et al., Toxicol Appl Pharmacol. 1995; 131(1):31-6. The potency of the test compound is expressed as the dose inducing a 50% reduction in the sensitive-component of the tracheal potential difference.
# T1 sequence (Q16651 33-343): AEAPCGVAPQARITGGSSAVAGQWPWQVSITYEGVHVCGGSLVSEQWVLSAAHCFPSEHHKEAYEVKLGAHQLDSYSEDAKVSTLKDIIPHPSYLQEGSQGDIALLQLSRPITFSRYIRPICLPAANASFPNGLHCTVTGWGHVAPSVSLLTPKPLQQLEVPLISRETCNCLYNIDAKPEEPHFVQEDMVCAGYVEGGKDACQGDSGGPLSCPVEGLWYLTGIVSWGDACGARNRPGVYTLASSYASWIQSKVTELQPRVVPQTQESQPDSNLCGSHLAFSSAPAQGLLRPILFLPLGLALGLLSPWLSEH
# rGPig-prostasin, sequence (A0A286XIW9 1-343): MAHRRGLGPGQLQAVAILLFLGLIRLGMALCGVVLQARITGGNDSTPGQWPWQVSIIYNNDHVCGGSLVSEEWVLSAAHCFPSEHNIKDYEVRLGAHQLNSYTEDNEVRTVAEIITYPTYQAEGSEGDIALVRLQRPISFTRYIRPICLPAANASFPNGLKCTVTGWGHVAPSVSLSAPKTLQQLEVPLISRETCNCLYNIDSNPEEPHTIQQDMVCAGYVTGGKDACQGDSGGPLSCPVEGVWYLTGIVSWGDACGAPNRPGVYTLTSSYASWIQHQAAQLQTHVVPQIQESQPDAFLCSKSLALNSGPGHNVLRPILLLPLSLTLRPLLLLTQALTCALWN
compound,measurement,setting,value
"CN(C)C(=O)COC(=O)Cc1ccc(OC(=O)c2ccc(NC(=N)N)cc2)cc1 [Camostat mesylate, N,N-dimethyl-carbamoylmethyl-p-(p-guanidinobenzoyloxy)phenylacetate]",IC50,[1],0.05 µM
same,Ki,rh-prostasin,0.429 µM
same,Ki,rh-matriptase,0.005 µM
same,Ki,rGPig-prostasin,0.098 µM
same,Mean absolute tracheal potential difference (± s.e. mean),"[2]; 2 hr, 1 μg/kg intra-tracheal",−10.0 ± 0.7
same,Mean absolute tracheal potential difference (± s.e. mean),"[2]; 2 hr, 3 μg/kg intra-tracheal",−7.3 ± 0.5
same,Mean absolute tracheal potential difference (± s.e. mean),"[2]; 2 hr, 10 μg/kg intra-tracheal",−6.4 ± 0.5
same,Mean absolute tracheal potential difference (± s.e. mean),"[2]; 2 hr, 30 μg/kg intra-tracheal",−5.3 ± 0.3
same,Mean absolute tracheal potential difference (± s.e. mean),"[2]; 2 hr, 100 μg/kg intra-tracheal",−4.7 ± 0.5
same,Mean absolute tracheal potential difference (± s.e. mean),"[2]; 5 hr, 3 μg/kg intra-tracheal",−10.8 ± 1.0
same,Mean absolute tracheal potential difference (± s.e. mean),"[2]; 5 hr, 10 μg/kg intra-tracheal",−9.7 ± 1.5
same,Mean absolute tracheal potential difference (± s.e. mean),"[2]; 5 hr, 30 μg/kg intra-tracheal",−7.5 ± 0.4
same,Mean absolute tracheal potential difference (± s.e. mean),"[2]; 5 hr, 100 μg/kg intra-tracheal",−6.5 ± 0.3
same,Mean absolute tracheal potential difference (± s.e. mean),"[2]; 5 hr, 300 μg/kg intra-tracheal",−5.2 ± 0.3
same,Mean absolute tracheal potential difference (± s.e. mean),"[2]; 5 hr, 1000 μg/kg intra-tracheal",−5.7 ± 0.4
same,ED50,[2]; 2 hr after dosing,0.0033 mg/kg
same,ED50,[2]; 5 hr after dosing,0.026 mg/kg
